Test results taken from US20240408180A1, “IONIC LIQUIDS FOR DRUG DELIVERY” (PRESIDENT AND FELLOWS OF HARVARD COLLEGE, priority 2021, published 2024).
Blank lines part the entries; values can stand above or below the substance they belong to.

Assays:
[1] = biological target: Type I Human Collagen (human) (UniProt P02452); experiment: fluorescence polarization of Cy5.5-insulin mixed with Type I human collagen
[2] = biological target: Type I Human Collagen (human) (UniProt P02452); experiment: dynamic light scattering time course after mixing with collagen
[3] = biological target: Type I Human Collagen (human) (UniProt P02452); experiment: dynamic light scattering after mixing the insulin formulation with collagen
[4] = biological target: T1, insulin (Homo sapiens, UniProt P01308); experiment: Circular dichroism of insulin secondary structure in ILs; assay type: physicochemical; settings: one hour at room temperature and at 37 C; insulin ~6 U/mL (0.2 mg/mL); versus saline negative control
T1 construct: in this case insulin around 5.8 kDa; purchased Sigma Aldrich (St. Louis, MO)
Description: Circular dichroism was used to assess insulin secondary structure (FIG. 2). The experiment was performed after incubation at room temperature and at 37° C. (physiological temperature) for one hour. This was done to assess whether the heat change associated with subcutaneous injection may affect the insulin structure. […] “aCG” refers to acetylcholine glycolic acid and “aCH” refers to acetylcholine hexenoic acid. Insulin concentration was ˜6 U/mL (0.2 mg/mL).

[5] = In vivo PK of insulin in ILs after subcutaneous injection; settings: rats, insulin 1 U/kg, non-fasted
[6] = system: antibody; experiment: Antibody stability by circular dichroism; assay type: physicochemical; settings: one hour at room temperature; versus fresh antibody control
Description: (§1) Antibody stability was next tested. Circular dichroism and SDS-PAGE were used to assess antibody stability (FIG. 5). […] Additionally, SDS-PAGE was used to assess whether acetylcholine caused aggregation (of particular importance for large beta-sheet biologics like antibodies). […] Both CD and SDS-PAGE were performed after incubation at room temperature for one hour.

[7] = system: dendritic cell line; experiment: In vitro transfection with mRNA nanoparticles coated with DES; assay type: cell-based; settings: 4 hours incubation, flow cytometry
Description: IL delivery of mRNA in vitro was assessed. The in vitro transfection experiments were performed in a dendritic cell line with mRNA nanoparticles and indicate that acetylcholine hexenoic acid DES can enhance mRNA treatments. The particles were incubated with acetylcholine DES solutions to “coat” the particles. The cells were incubated with the particles for the 4 hours before analyzing with flow cytometry.

[8] = biological target: T2, Type I human collagen (Homo sapiens, UniProt P02452+P08123); experiment: Fluorescence polarization of Cy5.5-labeled insulin mixed with collagen; assay type: binding; settings: Cy5.5-labeled insulin in aCH versus saline control
T2 construct: purchased Advanced BioMatrix (Carlsbad, CA)
Description: The ability of SPADE to mitigate the interactions of proteins with ECM was assessed using the lead DES, aCH. A schematic representation of the hypothesized mechanism is depicted in FIG. 8A. SPADE (right) is hypothesized to decrease non-specific binding between administered therapeutic proteins and subcutaneous extracellular proteins such as collagen to allow for faster and greater absorption of protein biologics. To test this hypothesis, fluorescence polarization (FP) was performed and dynamic light scattering (DLS) utilized to determine the degree of collagen-insulin association. […] The average polarization was 1.5 times higher for the control group than the SPADE group. To further confirm the FP results and compare against Humalog, DLS was used to measure the average particle diameter (z-avg) after mixing insulin formulations with collagen, as the z-avg for insulin-bound collagen would increase with fewer unbound insulin molecules remaining and only the collagen or collagen-insulin complex being detected. The initial average z-avg for both the Humalog- and SPADE-insulin-collagen mixtures were approximately 100 nm. […]
Physical stability of the formulations in the presence of collagen was further assessed using fluorescence polarization (FP). […] When insulin is fluorescently labeled and excited with polarized light the perpendicular and parallel polarized light emission can be measured. […]

[9] = biological target: T1, insulin; experiment: Stressed aging test of insulin-DES formulations (transmittance); assay type: physicochemical; settings: 50 hours at 37 C with constant shaking
Description: Successful dissolution of insulin was determined by the turbidity of the formulation, assessed by converting absorbance at 540 nm to transmittance.^16 The percent transmittance threshold for the successful formulation was set at 80% as this was the mean transmittance for the clinical comparator (Humalog). Low transmittance values are indicative of insoluble insulin aggregates. All but two formulations met this criterion (FIG. 13). To further screen the remaining DES formulations, a stressed aging test was performed to determine their stability for 50 hours at 37° C. with constant shaking.
(§2) The insulin-DES formations were first analyzed for initial transmittance to confirm that there was no insulin aggregation immediately after formulation preparation. Subsequently, formulations that passed initial screening were plated in a black-walled 96 well plate (replicates of three) and subjected to a stressed aging assay in which the plate was incubated at 37° C. with constant shaking. Absorbance readings were taken every 15 minutes for 50 hours to assess the change in transmittance over time. For cold chain stability, formulations were tested in a similar manner, without constant shaking, at 4° C. for 28 days.

[10] = biological target: T1, insulin; experiment: Circular dichroism of insulin-DES formulations; assay type: physicochemical; settings: 37 C for two hours
Description: (§3) The final screening was performed to assess cold-chain stability and confirm monomer conformational stability. […] The stability of hexenoate-based formulations was further confirmed by assessing the protein's secondary structure through circular dichroism (CD). […] CD spectra integrity was also confirmed by measuring the high-tension voltage, which was maintained below 500 V for the relevant insulin CD wavelengths (FIG. 14).
Protein Stability Assessment Using Circular Dichroism and SDS-PAGE. […] In preparation for circular dichroism (CD) and SDS-PAGE, the post-dialysis concentration was measured with UV Spectrophotometry (Thermo Scientific NanoDrop One) and adjusted to 200 μg/mL. CD was performed by loading quartz cuvettes (Starna Cells Spectrosil Quartz 1-Q-1), with 200 μL of the sample, into a CD spectrophotometer (Jasco J-815). Mean ellipticity was measured from 190 to 250 nm.

[11] = system: rituximab; experiment: SPADE-mAb stability by circular dichroism; assay type: physicochemical; settings: 37 C for 24 hours
Description: (§4) Described herein the exploration of whether SPADE can also enhance the absorption of a large protein biologic, namely monoclonal antibody rituximab (SPADE-mAb), that would benefit from greater absorption from subcutaneous administration. Due to the clinical requirement of higher dosing for subcutaneous antibody formulation compared to insulin, we first assessed DES concentration for stable SPADE formulation with rituximab using SDS-PAGE and CD. Formulations were prepared with various DES concentrations and consistent rituximab concentrations and incubated at 37° C. for 2 and 24 hours. After incubation, the samples were dialyzed against sodium phosphate to remove DES, and the resulting samples were diluted to the same concentration via UV-Vis spectrophotometry before SDS-PAGE and CD analyses. […] To further confirm this CD was used to assess the secondary structure of the samples that were incubated for 24 hours.
Protein Stability Assessment Using Circular Dichroism and SDS-PAGE. Insulin and antibody formulations were incubated at 37° C. for one hour and subsequently dialyzed against 10 mM Sodium Phosphate pH 7.4. In preparation for circular dichroism (CD) and SDS-PAGE, the post-dialysis concentration was measured with UV Spectrophotometry (Thermo Scientific NanoDrop One) and adjusted to 200 μg/mL. […] Mean ellipticity was measured from 190 to 250 nm.

[12] = biological target: T1, insulin; experiment: Cold-chain stability of insulin-DES formulations (transmittance); assay type: physicochemical; settings: 4 C over 28 days
Description: as §3, §2

[13] = system: rituximab; experiment: SPADE-mAb stability by SDS-PAGE; assay type: physicochemical; settings: for rituximab stability by SDS-PAGE: 37 C for 2 and 24 hours
Description: as §4
Protein Stability Assessment Using Circular Dichroism and SDS-PAGE. Insulin and antibody formulations were incubated at 37° C. for one hour and subsequently dialyzed against 10 mM Sodium Phosphate pH 7.4. In preparation for circular dichroism (CD) and SDS-PAGE, the post-dialysis concentration was measured with UV Spectrophotometry (Thermo Scientific NanoDrop One) and adjusted to 200 μg/mL. CD was performed by loading quartz cuvettes (Starna Cells Spectrosil Quartz 1-Q-1), with 200 μL of the sample, into a CD spectrophotometer (Jasco J-815). Mean ellipticity was measured from 190 to 250 nm.
To assess antibody aggregation, SDS-PAGE was performed using vertical gel electrophoresis (BioRad Mini-PROTEAN Tetra Cell) loaded with precast polyacrylamide gels (BioRad TGX 4-15%) according to the manufacturer protocol. To form SDS complexes, samples were incubated in 1× Lammeli buffer for 10 minutes at 70° C. before loading in the gel. After 30 minutes of electrophoresis, the gel was removed and protein bands stained with Coumassie dye.

[14] = system: antibody; experiment: Antibody aggregation by SDS-PAGE; assay type: physicochemical; settings: one hour at room temperature; versus control
Description: as §1

[15] = rat, in vivo, 10 mg/kg; cited from earlier work

T1 sequence (P01308 25-54 limits assumed, species assumed): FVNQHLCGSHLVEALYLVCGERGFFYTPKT
T1 sequence (P01308 90-110 limits assumed, species assumed): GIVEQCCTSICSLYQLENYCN
Sequence of Type I Human Collagen (human) (P02452 179-1192 limits assumed, chain 1 of 2): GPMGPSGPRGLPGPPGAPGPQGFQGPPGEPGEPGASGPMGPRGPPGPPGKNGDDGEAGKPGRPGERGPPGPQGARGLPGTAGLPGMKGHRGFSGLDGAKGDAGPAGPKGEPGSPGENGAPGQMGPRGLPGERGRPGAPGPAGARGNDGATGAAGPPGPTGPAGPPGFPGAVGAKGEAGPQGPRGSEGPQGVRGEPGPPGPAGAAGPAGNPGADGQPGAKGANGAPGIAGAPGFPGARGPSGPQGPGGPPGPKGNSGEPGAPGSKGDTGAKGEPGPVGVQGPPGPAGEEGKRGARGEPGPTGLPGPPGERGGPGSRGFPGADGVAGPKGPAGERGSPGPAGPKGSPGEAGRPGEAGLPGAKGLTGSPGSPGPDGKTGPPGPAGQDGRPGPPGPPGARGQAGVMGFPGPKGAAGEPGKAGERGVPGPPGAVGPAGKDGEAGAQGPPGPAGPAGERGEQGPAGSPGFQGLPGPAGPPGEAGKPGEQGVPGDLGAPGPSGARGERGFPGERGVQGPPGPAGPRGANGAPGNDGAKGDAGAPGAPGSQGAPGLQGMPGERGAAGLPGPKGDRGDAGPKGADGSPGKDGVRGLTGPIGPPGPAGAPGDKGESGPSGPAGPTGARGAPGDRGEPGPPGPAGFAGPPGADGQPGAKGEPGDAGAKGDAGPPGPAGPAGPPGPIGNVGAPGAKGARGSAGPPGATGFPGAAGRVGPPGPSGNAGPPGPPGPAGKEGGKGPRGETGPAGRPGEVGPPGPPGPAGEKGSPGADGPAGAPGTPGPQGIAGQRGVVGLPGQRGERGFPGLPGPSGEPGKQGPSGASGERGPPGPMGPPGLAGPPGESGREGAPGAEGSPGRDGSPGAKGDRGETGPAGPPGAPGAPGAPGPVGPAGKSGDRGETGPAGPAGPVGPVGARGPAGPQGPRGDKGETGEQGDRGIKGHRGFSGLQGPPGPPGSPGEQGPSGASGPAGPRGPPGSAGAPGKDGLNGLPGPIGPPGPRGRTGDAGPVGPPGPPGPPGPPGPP
Sequence of Type I Human Collagen (human) (P08123 91-1104 limits assumed, chain 2 of 2, further chain): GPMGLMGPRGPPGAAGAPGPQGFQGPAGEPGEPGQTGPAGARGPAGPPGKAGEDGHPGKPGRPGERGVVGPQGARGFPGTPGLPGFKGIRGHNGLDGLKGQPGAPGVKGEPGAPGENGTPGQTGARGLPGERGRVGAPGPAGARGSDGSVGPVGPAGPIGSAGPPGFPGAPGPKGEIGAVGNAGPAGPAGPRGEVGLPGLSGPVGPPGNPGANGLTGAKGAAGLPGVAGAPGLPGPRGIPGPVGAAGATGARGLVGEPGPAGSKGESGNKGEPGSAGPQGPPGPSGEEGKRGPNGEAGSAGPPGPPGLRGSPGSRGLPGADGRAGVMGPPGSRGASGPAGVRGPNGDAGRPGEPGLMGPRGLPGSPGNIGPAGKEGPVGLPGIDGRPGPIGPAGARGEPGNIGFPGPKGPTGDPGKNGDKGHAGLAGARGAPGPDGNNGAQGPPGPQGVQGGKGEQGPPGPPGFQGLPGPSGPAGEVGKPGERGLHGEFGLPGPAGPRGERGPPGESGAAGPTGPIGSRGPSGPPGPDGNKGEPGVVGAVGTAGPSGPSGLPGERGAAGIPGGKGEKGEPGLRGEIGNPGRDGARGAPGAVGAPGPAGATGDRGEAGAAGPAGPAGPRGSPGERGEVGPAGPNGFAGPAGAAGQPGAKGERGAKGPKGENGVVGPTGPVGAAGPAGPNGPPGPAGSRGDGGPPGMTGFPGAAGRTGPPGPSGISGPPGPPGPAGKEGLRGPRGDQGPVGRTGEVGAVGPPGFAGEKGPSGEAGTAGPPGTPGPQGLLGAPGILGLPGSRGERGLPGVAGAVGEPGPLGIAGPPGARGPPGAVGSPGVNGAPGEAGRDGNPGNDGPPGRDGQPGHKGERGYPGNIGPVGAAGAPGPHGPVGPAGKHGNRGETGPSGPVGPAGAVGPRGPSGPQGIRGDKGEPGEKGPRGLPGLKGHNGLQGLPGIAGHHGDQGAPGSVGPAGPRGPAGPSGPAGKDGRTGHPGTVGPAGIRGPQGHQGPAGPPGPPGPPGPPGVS
Sequence of Cy 5.5 fluorescently-labeled insulin (ligand) (P01308 25-54): as the sequence (P01308 25-54 limits assumed, species assumed) above
T2 sequence (P02452 162-1218 limits assumed): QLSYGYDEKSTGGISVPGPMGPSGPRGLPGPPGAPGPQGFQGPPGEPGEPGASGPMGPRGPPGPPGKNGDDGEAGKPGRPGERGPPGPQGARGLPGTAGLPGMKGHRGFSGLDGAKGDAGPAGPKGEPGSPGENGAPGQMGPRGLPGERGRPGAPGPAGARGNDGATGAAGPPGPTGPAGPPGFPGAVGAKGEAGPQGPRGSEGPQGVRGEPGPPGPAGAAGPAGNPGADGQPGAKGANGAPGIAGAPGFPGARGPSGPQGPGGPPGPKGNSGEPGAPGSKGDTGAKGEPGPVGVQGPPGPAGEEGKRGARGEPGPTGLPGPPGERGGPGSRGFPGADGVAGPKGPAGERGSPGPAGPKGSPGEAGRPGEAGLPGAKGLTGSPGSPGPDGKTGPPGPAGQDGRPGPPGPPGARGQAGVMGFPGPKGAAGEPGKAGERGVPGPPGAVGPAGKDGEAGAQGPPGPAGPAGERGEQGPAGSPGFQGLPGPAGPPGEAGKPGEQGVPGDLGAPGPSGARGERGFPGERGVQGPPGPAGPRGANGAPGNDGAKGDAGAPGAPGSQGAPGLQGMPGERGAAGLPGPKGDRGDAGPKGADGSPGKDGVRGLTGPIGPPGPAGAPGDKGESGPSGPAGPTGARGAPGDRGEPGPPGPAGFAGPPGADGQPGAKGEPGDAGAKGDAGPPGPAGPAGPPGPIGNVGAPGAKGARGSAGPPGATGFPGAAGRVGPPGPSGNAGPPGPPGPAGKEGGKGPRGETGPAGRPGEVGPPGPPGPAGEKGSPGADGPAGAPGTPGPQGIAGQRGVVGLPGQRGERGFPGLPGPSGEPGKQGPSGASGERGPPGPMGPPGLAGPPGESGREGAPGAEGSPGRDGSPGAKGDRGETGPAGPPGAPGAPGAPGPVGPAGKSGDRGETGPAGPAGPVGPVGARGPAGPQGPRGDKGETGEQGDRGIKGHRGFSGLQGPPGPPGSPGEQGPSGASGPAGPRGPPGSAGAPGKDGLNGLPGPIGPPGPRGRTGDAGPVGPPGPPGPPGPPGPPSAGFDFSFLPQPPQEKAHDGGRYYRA
T2 sequence (P08123 80-1119 limits assumed): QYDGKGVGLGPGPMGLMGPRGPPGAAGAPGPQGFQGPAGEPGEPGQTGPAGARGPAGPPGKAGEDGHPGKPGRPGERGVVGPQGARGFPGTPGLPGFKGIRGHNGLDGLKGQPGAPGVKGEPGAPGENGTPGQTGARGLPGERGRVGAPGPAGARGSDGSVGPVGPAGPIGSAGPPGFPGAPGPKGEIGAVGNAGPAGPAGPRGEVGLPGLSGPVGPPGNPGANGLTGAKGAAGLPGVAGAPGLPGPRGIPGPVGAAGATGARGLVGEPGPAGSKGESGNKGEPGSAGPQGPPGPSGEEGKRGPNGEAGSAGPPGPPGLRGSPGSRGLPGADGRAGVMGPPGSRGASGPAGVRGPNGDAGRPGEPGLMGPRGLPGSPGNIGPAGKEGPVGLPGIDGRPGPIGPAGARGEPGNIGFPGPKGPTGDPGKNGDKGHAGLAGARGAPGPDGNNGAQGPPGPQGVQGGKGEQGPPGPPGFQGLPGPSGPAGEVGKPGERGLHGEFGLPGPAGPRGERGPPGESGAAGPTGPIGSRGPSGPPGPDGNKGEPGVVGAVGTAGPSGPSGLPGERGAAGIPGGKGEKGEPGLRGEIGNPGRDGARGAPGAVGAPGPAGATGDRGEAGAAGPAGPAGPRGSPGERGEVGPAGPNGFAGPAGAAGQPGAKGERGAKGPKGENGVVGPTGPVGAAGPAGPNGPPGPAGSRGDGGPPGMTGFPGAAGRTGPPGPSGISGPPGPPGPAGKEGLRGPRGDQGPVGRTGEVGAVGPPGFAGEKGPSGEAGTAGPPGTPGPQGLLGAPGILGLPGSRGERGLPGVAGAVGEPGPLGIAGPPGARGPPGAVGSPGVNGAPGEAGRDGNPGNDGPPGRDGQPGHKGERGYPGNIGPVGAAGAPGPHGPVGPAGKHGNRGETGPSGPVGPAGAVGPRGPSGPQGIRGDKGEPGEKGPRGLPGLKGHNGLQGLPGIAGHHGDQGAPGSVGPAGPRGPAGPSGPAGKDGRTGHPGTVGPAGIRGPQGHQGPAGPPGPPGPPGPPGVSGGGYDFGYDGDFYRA

Substance: Cy 5.5 fluorescently-labeled insulin (ligand)
fold average polarization, control (saline) over SPADE (aCH) [1]: 1.5 fold

Substance: acetylcholinium glycolate DES [aCG]
insulin secondary structure (circular dichroism curves) [4]: match the saline negative control groups
Cmax of serum insulin, greater than the choline variant [5]: 50%

Substance: acetylcholinium priopionate DES [aCP]
outcome of stressed aging test [9]: viable

Substance: cholinium propionate DES [CP]
outcome of stressed aging test [9]: viable

Substance: hyaluronidase
increase of rituximab absorption [15]: 91%

Substance: regular insulin formulated in aCH (SPADE-insulin) (from UniProt P01308 25-54; P01308 90-110) (ligand)
average particle diameter (z-avg) of the mixture with collagen over 60 min [2]: 100 nm
initial average particle diameter (z-avg) of the mixture with collagen [3]: 100 nm

Continued, in another order:

average particle diameter (z-avg) of the mixture with collagen over 60 min [2]: > 5000 nm
initial average particle diameter (z-avg) of the mixture with collagen [3]: 100 nm
Substance: Humalog (insulin lispro) (ligand)

secondary structure of the antibody (circular dichroism) [6]: not affected
insulin secondary structure (circular dichroism curves) [4]: match the saline negative control groups
CD spectra of insulin versus control insulin in sodium phosphate buffer [10]: matched that of the control insulin
rituximab secondary structure by CD versus control ([11]; 10% (v/v) DES): shift in mean ellipticity
cold-chain stability [12]: stable through Day 28
rituximab stability by SDS-PAGE ([13]; 10% (v/v) DES): faint band further up the gel
appropriate DES concentration for the SPADE-mAb formulation (from stability studies) ([13]; SDS-PAGE and CD stability studies): 5 % (v/v)
rituximab stability by SDS-PAGE ([13]; all DES concentrations apart from 10% (v/v)): stable
antibody aggregation (SDS-PAGE) [14]: looked the same as the control
Substance: acetylcholinium hexenoate DES [aCH]
mean fluorescent intensity (GFP expression) [7]: higher
percent of cells expressing GFP [7]: increased
non-specific insulin-collagen binding (fluorescence polarization) [8]: inhibits non-specific insulin-collagen binding
outcome of stressed aging test [9]: viable
rituximab secondary structure by CD versus control ([11]; DES concentrations other than 10% (v/v)): none of the other DES concentrations experienced this shift

CD spectra of insulin versus control insulin in sodium phosphate buffer [10]: matched that of the control insulin
cold-chain stability [12]: stable through Day 28
Substance: cholinium hexenoate DES
outcome of stressed aging test [9]: viable
